These results are taken from patent US12642801B2, “Pharmaceutical composition for preventing or treating rheumatoid arthritis and health functional food” (SEOUL NATIONAL UNIVERSITY R&DB FOUNDATION, priority 2021, dated 2026).

The subject of test [1] is TNF-α, IL-6, IFN-γ, IL-17a. Put plainly: Inflammatory cytokines in peripheral blood by ELISA, SIA mice. The format is in vivo. Conditions: ELISA at time of sacrifice, FIG. 11. How it is done: (§1) In the examples of the present invention, efficacies of the composition of the present invention were investigated by establishing animal models CIA or SIA with animal diseases similar to rheumatoid arthritis of the human body. Specifically, 100 μl of 250 μg or 500 μg of the compound YKL-05-099 (CAS No.: 1936529-65-5) shown in FIG. 1 was intraperitoneally (i.p.) administered to a mouse weighed 25 g (that is, 10 mg or 20 mg per 1 kg) once a day.
(§2) After administering YKL-05-099 to the rheumatoid arthritis animal model, essential inflammatory cytokines to induce rheumatoid arthritis such as TNF-α and IL-6, the representative immunoreactive cytokine of TH1 such as IFN-γ, and the representative immunoreactive cytokine of TH17 such as 1L-17a within peripheral blood at a time of sacrificing the mouse were subjected to analysis through enzyme linked immunosorbent assay (ELISA). Specifically, cytokine analysis was implemented using ELISA kit products according to instructions of Invitrogen Co., wherein the used product serial numbers are anti-IFN-γ (88-7314), anti-TNF-α (88-7324), anti-IL-17a (88-7371) and anti-IL-6 (88-7064). Disease-free mice without administration of antigens were used as a negative control. […] FIG. 10 illustrates measured results of cytokines in CIA mice while FIG. 11 illustrates measured results of cytokines in SIA mice, respectively.
Background: In an ELISA, binding on a coated surface is turned into a signal by an enzyme label.

Test [2] has as its system TNF-α, IL-6, IFN-γ, IL-17a. Put plainly: Inflammatory cytokines in peripheral blood by ELISA, CIA mice. The format is in vivo. As to conditions: ELISA at time of sacrifice, FIG. 10. As for the experimental part: as §1, §2
The subject of test [3] is CIA mice. Put plainly: Bone loss around paw joint (micro CT) in CIA mice. The class given is in vivo. As to conditions: bone amount in the paw joint, FIG. 9. How it is done: FIG. 9 is photographs taken through micro CT and graphs showing effects of inhibiting reduction of bone loss around the joints in the embodiments of the present invention.
as §1

The subject of test [4] is CD11b+ F4/80+ cells (macrophage cells). Put plainly: Macrophage cell level in spleen cells of CIA mice by flow cytometry. The format is in vivo. Conditions: for ratio of CD11b+ F4/80+ cells as a marker for macrophage cells: spleen live cells, CIA+Veh 1.854±0.41%, sham 0.355±0.08%. As for the experimental part: In order to confirm mitigation effects of increase in immune active macrophage cells in the spleen, after i.p. administration of YKL-05-099 in an amount of 10 mg/kg or 20 mg/kg to the rheumatoid arthritis model CIA mice once a day, spleen cells were isolated at a time of sacrificing the mice to investigate macrophage cell levels. FIGS. 13A and 13B illustrate the above results of investigating macrophage cell levels. Immune cell assay was performed through flow cytometry, and the experiment was implemented according to product instructions of Invitrogen Co.
Specifically, the spleen cells were isolated to prepare 1×10^6 cells/100 μl of single cells, followed by staining live/dead cells using fixable viability dye (Invitrogen, eFluor™780, 65-0865-14), and then blocking the same using anti-CD16/32 (Invitrogen, 14-0161). Following this, the above product was stained using anti-CD11b (Invitrogen, M1/70) and anti-F4/80 (Invitrogen, BM8). The stained cells were subjected to measurement of a ratio of CD11b^+ F4/80^+ cells as a marker for macrophage cells in live cells isolated through flow cytometry.
From the result of measuring a ratio of CD11b^+ F4/80^+ cells as a marker for macrophage cells, it was confirmed that sham is 0.355±0.08%, CIA+Veh is 1.854±0.41%, CIA+YKL-05-099 10 mg/kg is 1.043±0.30%, CIA+YKL-05-099 20 mg/kg is 0.975±0.12%, respectively. Using unpaid parametric Welch's corrected t-test (two-tailed), p-value was indicated. With regard to statistically significant levels, p-value is 0.05 or less, wherein significance was represented by *p<0.05, **p<0.01 and ***p<0.001. CIA+Veh vs sham p-value is 0.0009, CIA+YKL-05-099 20 mg/kg vs CIA+Veh p-value is 0.0057, CIA+YKL-05-099 10 mg/kg vs sham p-value is 0.0019, CIA+YKL-05-099 20 mg/kg vs sham p-value is 0.0002, and CIA+YKL-05-099 10 mg/kg vs CIA+Veh p-value is 0.0076.
In general terms: Flow cytometry measures light scatter and fluorescence of single cells or particles in a stream.

For test [5], the system named is CIA mice. Briefly: Edema of paws and joints / paw thickness in CIA mice. The format is in vivo. How it is done:
In the present invention, “CIA” is used for an animal model suffering from rheumatoid arthritis and means “collagen-induced arthritis.”
as §1
(§3) After i.p. administration of YKL-05-099 in an amount of 10 mg/kg or 20 mg/kg to mice having rheumatoid arthritis once a day, improvement of edema in the paws was investigated. For definite measurement and comparison, the most swollen portion of the paw was measured in multiple times, and collected numerical values of paw thickness were recorded and compared. Disease-free mice without administration of antigens were used as a negative control.
(§4) FIG. 4 illustrates measured results of the paw thickness of CIA mice while FIG. 5 illustrates measured results of the paw thickness of SIA mice, respectively.

Test [6] deals with SIA mice. Briefly: Edema of paws and joints / paw thickness in SIA mice. The class given is in vivo. As for the experimental part: In the present invention, “SIA” is used for an animal model suffering from rheumatoid arthritis and means “serum transfer arthritis.”
as §1, §3, §4

For test [7], the system named is CIA mice. Put plainly: Rheumatoid arthritis clinical score in CIA mice. The class given is in vivo. Conditions: 10 mg/kg or 20 mg/kg, score 0-4 per paw, four paws combined, FIG. 6. How it is done:
as §1
(§5) With regard to rheumatoid arthritis animal models CIA and SIA, respectively, rheumatoid arthritis clinical score was investigated. Disease-free mice without administration of antigen were used as a negative control. The clinical scores were determined depending on significance as follows: 0 (no symptom); 1 (slight edema on the soles or toes); 2 (significant edema throughout the soles and toes); 3 (significant to serious edema throughout the paw); 4 (serious edema and distortion throughout the paw), and then, the results for four paws were combined. FIG. 6 illustrates the results for CIA mice, and FIG. 7 illustrates the results for SIA mice, respectively.

The subject of test [8] is SIA mice. Put plainly: Rheumatoid arthritis clinical score in SIA mice. The format is in vivo. As to conditions: 10 mg/kg or 20 mg/kg, score 0-4 per paw, four paws combined, FIG. 7. How it is done:
as §1, §5

In another test the test system is CD4+ Foxp3+ cells (Treg). Put plainly: Treg cell level in spleen cells of CIA mice by flow cytometry. The class given is in vivo. Conditions: for ratio of CD4+ Foxp3+ cells as a marker for Treg: spleen live cells, CIA+Veh 12.24±0.34%, sham 10.725±0.53%. How it is done:
After i.p. administration of YKL-05-099 in an amount of 10 mg/kg or 20 mg/kg to the rheumatoid arthritis model CIA mice once a day, spleen cells were isolated at a time of sacrificing the mice to investigate Treg cell levels. Immune cell assay was performed through flow cytometry, and the experiment was implemented according to product instructions of Invitrogen Co. Specifically, the spleen cells were isolated to prepare 1×10^6 cells/100 μl of single cells, followed by staining live/dead cells using fixable viability dye (Invitrogen, eFluor™780, 65-0865-14), and then blocking the same using anti-CD16/32 (Invitrogen, 14-0161). Following this, the above product was stained using anti-CD4 (Invitrogen, RM4-5, mice) and anti-Foxp3 (Invitrogen, FJK-16s, mice). The stained cells were subjected to measurement of a ratio of CD4^+ Foxp3^+ cells as a marker for Treg in live cells isolated through flow cytometry.
FIGS. 12A and 12B illustrate the above measured results. From the results of measuring a ratio of CD4^+ Foxp3^+ cells as a marker for Treg, it was confirmed that sham (disease-free mice) is 10.725±0.53%, CIA+Veh is 12.24±0.34%, CIA+YKL-05-099 10 mg/kg is 14.2±1.28%, CIA+YKL-05-099 20 mg/kg is 14.98±1.16%, respectively. Using unpaid parametric Welch's corrected t-test (two-tailed), p-value was indicated. With regard to statistically significant levels, p-value is 0.05 or less, wherein significance was represented by *p<0.05, **p<0.01 and ***p<0.001. Sham vs CIA+Veh p-value is 0.0045, CIA+YKL-05-099 10 mg/kg vs CIA+Veh p-value is 0.0119, CIA+YKL-05-099 20 mg/kg vs CIA+Veh p-value is 0.0046, CIA+YKL-05-099 10 mg/kg vs sham p-value is 0.0005, and CIA_YKL-05-099 20 mg/kg vs sham p-value is 0.0004.

In test [9] the test system is spleen and the lymph nodes. Put plainly: Expansion of spleen and lymph tissues (inguinal and mesenteric lymph nodes). As to conditions: compared to the control, FIG. 8. The format is in vivo, mice. How it is done: In the examples of the present invention, efficacies of the composition of the present invention were investigated by establishing animal models CIA or SIA with animal diseases similar to rheumatoid arthritis of the human body. Specifically, 100 μl of 250 μg or 500 μg of the compound YKL-05-099 (CAS No.: 1936529-65-5) shown in FIG. 1 was intraperitoneally (i.p.) administered to a mouse weighed 25 g (that is, 10 mg or 20 mg per 1 kg) once a day. […] Disease-free mice without administration of antigens were used as a negative control, and the compared results are shown in FIG. 8.

As to `COc1ccc(N2C(=O)N(c3c(C)cccc3Cl)Cc3cnc(Nc4ccc(C5CCN(C)CC5)cc4OC)nc32)nc1` [YKL-05-099], the “inflammatory cytokines (TNF-α, IL-6, IFN-γ, IL-17a) within peripheral blood” value in test [1] and in test [2] was “greatly suppressed” throughout. In addition, the “bone loss in paw joint” value in the test on CIA mice [3] is “significantly inhibited”. In [4] (10 mg/kg and 20 mg/kg), the “ratio of macrophage cells compared to CIA+Veh” value is “statistically significant decrease”. Further, the “ratio of CD11b+ F4/80+ cells as a marker for macrophage cells” value in test [4] (10 mg/kg i.p. once a day, p vs Veh 0.0076) came out at 1.043±0.30%; in test [4] (20 mg/kg i.p. once a day, p vs Veh 0.0057), 0.975±0.12%. Moreover, the “edema of the paws and around the joints (visually observed)” value in the test with CIA mice [5] (10 mg/kg or 20 mg/kg i.p. once a day, compared to the control, FIG. 2) is recorded as “remarkably improved”; with SIA mice [6] (10 mg/kg or 20 mg/kg i.p. once a day, compared to the control, FIG. 3), “remarkably improved”. For the same molecule, the paw thickness result with CIA mice [5] (vs vehicle administered group, FIG. 4) was “remarkably thinner”; with SIA mice [6] (vs vehicle administered group, FIG. 5), “remarkably thinner”. In addition, the “rheumatoid arthritis clinical scores” value in the test with CIA mice [7] and in the test with SIA mice [8] was “significantly reduced” throughout. Also, in the test with CD4+ Foxp3+ cells (Treg) (10 mg/kg and 20 mg/kg), the “ratio of Treg cells compared to CIA+Veh” value is listed as “statistically significant increase”. The “ratio of CD4+ Foxp3+ cells as a marker for Treg” value came to 14.2±1.28% in the test on CD4+ Foxp3+ cells (Treg) (10 mg/kg i.p. once a day, p vs Veh 0.0119) and 14.98±1.16% in the test on CD4+ Foxp3+ cells (Treg) (20 mg/kg i.p. once a day, p vs Veh 0.0046). Further, the “expansion of the spleen and the lymph nodes” value in test [9] was “greatly suppressed”.
